Each compound was assayed against human ACSS2 protein (Homo sapiens (Human), UniProt Q9NR19) (assay: ACSS2 Cell-Free Activity Assay (Cell-Free IC50)). Conditions: 10 nM human ACSS2 protein, 90 minutes at 37 C, pyrophosphatase-coupled, Biomol Green absorbance at 620 nm; read-out: ACSS2 Biochemical IC50.
Description: ACSS2 Cell-Free Activity Assay (Cell-Free IC50)

Sequence of human ACSS2 protein (Q9NR19 whole entry): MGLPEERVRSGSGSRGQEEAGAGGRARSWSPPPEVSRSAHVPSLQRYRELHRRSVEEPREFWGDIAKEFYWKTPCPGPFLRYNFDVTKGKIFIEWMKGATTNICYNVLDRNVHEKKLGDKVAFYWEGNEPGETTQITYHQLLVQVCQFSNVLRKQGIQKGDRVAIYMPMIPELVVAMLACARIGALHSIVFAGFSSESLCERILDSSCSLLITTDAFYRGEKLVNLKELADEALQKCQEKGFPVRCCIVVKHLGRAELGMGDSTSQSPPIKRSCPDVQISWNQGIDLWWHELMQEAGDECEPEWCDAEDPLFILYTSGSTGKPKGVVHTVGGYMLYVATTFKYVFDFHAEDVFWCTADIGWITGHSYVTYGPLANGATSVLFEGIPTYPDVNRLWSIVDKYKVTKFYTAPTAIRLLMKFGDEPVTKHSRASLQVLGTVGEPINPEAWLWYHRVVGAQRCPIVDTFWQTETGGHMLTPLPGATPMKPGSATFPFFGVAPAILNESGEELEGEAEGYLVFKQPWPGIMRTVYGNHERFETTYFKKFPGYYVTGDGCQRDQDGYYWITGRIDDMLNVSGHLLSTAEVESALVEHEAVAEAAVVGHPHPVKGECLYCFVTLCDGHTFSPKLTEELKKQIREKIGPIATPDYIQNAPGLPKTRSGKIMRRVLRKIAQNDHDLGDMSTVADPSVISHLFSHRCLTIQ

| Compound | IC50 [nM] |
| --- | --- |
| 1-(4-(difluoromethoxy)phenyl)-3-methyl-4-(1-((4-(methylsulfonyl)phenyl)amino)-1H-1,2,3-triazol-4-yl)-1H-pyrazol-5(4H)-one [Compound 195] | > 100 |
| CCC1(C(=O)Nc2cccc(C(C)(F)F)c2)C(=O)N(c2ccc(OC(F)F)c(-c3ccccc3)c2)N=C1C (stereo not shown) [Compound 100, N-(3-(1,1-difluoroethyl)phenyl)-1-(6-(difluoromethoxy)-[1,1′-biphenyl]-3-yl)-4-ethyl-3-methyl-5-oxo-4,5-dihydro-1H-pyrazole-4-carboxamide] | > 100 |
| CC1=NN(c2ccc(OC(F)F)cc2)C(=O)C1C(=O)Nc1cccc(C(F)(F)C2CCC2)c1 (stereo not shown) [Compound 101, N-(3-(cyclobutyldifluoromethyl)phenyl)-1-(4-(difluoromethoxy)phenyl)-3-methyl-5-oxo-4,5-dihydro-1H-pyrazole-4-carboxamide] | 1 to 100 |
| CCC(F)(F)c1cccc(NC(=O)c2cc(C)nc(-c3ccc(OC(F)F)cc3)c2)c1 [Compound 102, 2-[4-(difluoromethoxy)phenyl]-N-[3-(1,1-difluoropropyl)phenyl]-6-methyl-pyridine-4-carboxamide] | > 100 |
| CCC(F)(F)c1cccc(NC(=O)c2nc(C)c(-c3ccc(OC(F)F)c(-c4ccccc4)c3)nc2C)c1 [Compound 103, 5-(6-(difluoromethoxy)-[1,1′-biphenyl]-3-yl)-N-(3-(1,1-difluoropropyl)phenyl)-3,6-dimethylpyrazine-2-carboxamide] | > 100 |
| Cc1nc(-c2ccc(OC(F)F)c(-c3ccccc3)c2)c(C)nc1C(=O)Nc1cccc(C(C)(F)F)c1 [Compound 104, N-(3-(1,1-difluoroethyl)phenyl)-5-(6-(difluoromethoxy)-[1,1′-biphenyl]-3-yl)-3,6-dimethylpyrazine-2-carboxamide] | > 100 |
| CCC(F)(F)c1cccc(NC(=O)c2nc(C)c(-c3ccc(OC(F)F)cc3)nc2C)c1 [Compound 105, 5-(4-(difluoromethoxy)phenyl)-N-(3-(1,1-difluoropropyl)phenyl)-3,6-dimethylpyrazine-2-carboxamide] | > 100 |
| Cc1oc(-c2ccc3cc[nH]c3c2)nc1C(=O)Nc1cccc(C(C)(F)F)c1 [Compound 107, N-[3-(1,1-difluoroethyl)phenyl]-2-(1H-indol-6-yl)-5-methyl-oxazole-4-carboxamide] | > 100 |
| Cc1c(C(=O)Nc2cccc(C(C)(F)F)c2)c(=O)n(-c2ccc3cc[nH]c3c2)n1Cc1ccccc1 [Compound 108, 1-benzyl-N-[3-(1,1-difluoroethyl)phenyl]-2-(1H-indol-6-yl)-5-methyl-3-oxo-pyrazole-4-carboxamide] | > 100 |
| CC1=NN(c2ccc(C=C(c3ccccc3)c3ccccc3)c(-c3cccnc3)c2)C(=O)C1C(=O)Nc1cccc(C(C)(F)F)c1 (stereo not shown) [Compound 109] | 1 to 100 |
| CC1=NN(c2ccc(C=C(c3ccccc3)c3ccccc3)c(Br)c2)C(=O)C1C(=O)Nc1cccc(C(C)(F)F)c1 (stereo not shown) [Compound 110] | 1 to 100 |
| CCCC1(C(=O)Nc2cccc(C(C)(F)F)c2)C(=O)N(c2ccc(OC(F)F)c(-c3ccccc3)c2)N=C1C (stereo not shown) [Compound 111, N-(3-(1,1-difluoroethyl)phenyl)-1-(6-(difluoromethoxy)-[1,1′-biphenyl]-3-yl)-3-methyl-5-oxo-4-propyl-4,5-dihydro-1H-pyrazole-4-carboxamide] | > 100 |
| CCC(F)(F)c1cccc(NC(=O)c2nc(-c3ccc(OC(F)F)cc3)oc2C)c1 [Compound 112, 2-(4-(difluoromethoxy)phenyl)-N-(3-(1,1-difluoropropyl)phenyl)-5-methyloxazole-4-carboxamide] | 1 to 100 |
| Cc1oc(-c2ccc(OC(F)F)cc2)nc1C(=O)Nc1cccc(C(C)(F)F)c1 [Compound 113, N-(3-(1,1-difluoroethyl)phenyl)-2-(4-(difluoromethoxy)phenyl)-5-methyloxazole-4-carboxamide] | > 100 |
| CCC(F)(F)c1cccc(NC(=O)c2nc(-c3ccc(OC)cc3)oc2C)c1 [Compound 116, N-(3-(1,1-difluoropropyl)phenyl)-2-(4-methoxyphenyl)-5-methyloxazole-4-carboxamide] | > 100 |
| CCC(F)(F)c1cccc(NC(=O)c2nc(-c3ccc(OC(F)F)c(-c4ccccc4)c3)cnc2C)c1 [Compound 117, 6-[4-(difluoromethoxy)-3-phenyl-phenyl]-N-[3-(1,1-difluoropropyl)phenyl]-3-methyl-pyrazine-2-carboxamide] | > 100 |
| Cc1ncc(-c2ccc(OC(F)F)c(-c3ccccc3)c2)nc1C(=O)Nc1cccc(C(C)(F)F)c1 [Compound 118, N-[3-(1,1-difluoroethyl)phenyl]-6-[4-(difluoromethoxy)-3-phenyl-phenyl]-3-methyl-pyrazine-2-carboxamide] | > 100 |
| CCC(F)(F)c1cccc(NC(=O)c2cnc(-c3ccc(OC(F)F)c(-c4ccccn4)c3)nc2C)c1 [Compound 119, 2-(4-(difluoromethoxy)-3-(pyridin-2-yl)phenyl)-N-(3-(1,1-difluoropropyl)phenyl)-4-methylpyrimidine-5-carboxamide] | > 100 |
| Cc1nc(-c2ccc(OC(F)F)c(-c3ccccn3)c2)ncc1C(=O)Nc1cccc(C(C)(F)F)c1 [Compound 120, N-(3-(1,1-difluoroethyl)phenyl)-2-(4-(difluoromethoxy)-3-(pyridin-2-yl)phenyl)-4-methylpyrimidine-5-carboxamide] | > 100 |
| CCC(F)(F)c1cccc(NC(=O)C2C(=O)N(c3cc(Cc4ccccc4)c(OC)c(-c4ccccc4)c3)N=C2C)c1 (stereo not shown) [Compound 121, 1-(5-benzyl-6-methoxy-[1,1′-biphenyl]-3-yl)-N-(3-(1,1-difluoropropyl)phenyl)-3-methyl-5-oxo-4,5-dihydro-1H-pyrazole-4-carboxamide] | 1 to 100 |
| COc1c(Cc2ccccc2)cc(N2N=C(C)C(C(=O)Nc3cccc(C(C)(F)F)c3)C2=O)cc1-c1ccccc1 (stereo not shown) [Compound 122, 1-(5-benzyl-6-methoxy-[1,1′-biphenyl]-3-yl)-N-(3-(1,1-difluoroethyl)phenyl)-3-methyl-5-oxo-4,5-dihydro-1H-pyrazole-4-carboxamide] | < 1 |
| CCC(F)(F)c1cccc(NC(=O)c2nc(-c3ccc(OC(F)F)c(-c4ccccc4)c3)oc2C)c1 [Compound 123, 2-[4-(difluoromethoxy)-3-phenyl-phenyl]-N-[3-(1,1-difluoropropyl)phenyl]-5-methyl-oxazole-4-carboxamide] | > 100 |
| Cc1oc(-c2ccc(OC(F)F)c(-c3ccccc3)c2)nc1C(=O)Nc1cccc(C(C)(F)F)c1 [Compound 124, N-[3-(1,1-difluoroethyl)phenyl]-2-[4-(difluoromethoxy)-3-phenyl-phenyl]-5-methyl-oxazole-4-carboxamide] | > 100 |
| CCC(F)(F)c1cccc(NC(=O)c2nc(-c3ccc(OC(F)F)cc3)cnc2C)c1 [Compound 125, 6-(4-(difluoromethoxy)phenyl)-N-(3-(1,1-difluoropropyl)phenyl)-3-methylpyrazine-2-carboxamide] | > 100 |
| Cc1ncc(-c2ccc(OC(F)F)cc2)nc1C(=O)Nc1cccc(C(C)(F)F)c1 [Compound 126, N-(3-(1,1-difluoroethyl)phenyl)-6-(4-(difluoromethoxy)phenyl)-3-methylpyrazine-2-carboxamide] | > 100 |
